We go through 4 molecules from patent publication US6900221B1, “Stable polymorph on N-(3-ethynylphenyl)-6, 7-bis (2methoxyethoxy)-4-quinazolinamine hydrochloride, methods of production, and pharmaceutical uses thereof” (OSI Pharmaceuticals, Inc., priority 1999, dated 2005).

Data set [1] can be described thus: Solubility in aqueous compositions. The format is physicochemical. To be noted: compared with the hydrochloride compound.
A short description of data set [2]: Thermodynamic stability of the polymorphic forms. To be noted: hydrochloride polymorph forms compared. It is filed as physicochemical.
Data set [3] deals with refractory non-small cell lung cancer (NSCLC). To be noted: 150 mg daily, first 19 evaluable patients.
Source text: Qualification criteria for the open label, single agent study required the patients to have failed platinum-based chemotherapy and to have tumors that are histopathologically confirmed to be EGFR positive. The primary endpoint in the study is response rate with stable disease and time-to-progression amongst the secondary end-points.
For data set [4], the system named is advanced head and neck cancer. Briefly: Phase II single agent study in advanced head and neck cancer. To be noted: 150 mg daily.
The nature of data set [5]: Phase I clinical studies, safety. The format is in vivo, human. The method, then: […]. […] In a daily dosing regimen study the dose limiting toxicity at 200 mg/day was diarrhea. This observed side effect was effectively controlled at the 150 mg daily dose level using Loperamide (Imodium®). […] The rash has a unique histopathology of PMN infiltration with mild epidermal hyperproliferation. It is not consistent with drug hypersensitivity nor does it appear to be a “named” dermatological condition. This rash has not been a significant impediment to patients staying on the Phase II trials. […]. […] For example, in one Phase I study of 28 patients, 8 patients remain alive over a year after inception of treatment and 12 patients remained alive from 9-22 months.

Data set [6] relates to cancer patients with multiple tumor types. Nature of the data set: Phase I clinical studies, preliminary evidence of effectiveness in cancer patients. It is filed as in vivo, human. To be noted: one Phase I study of 28 patients.
Data set [7] relates to refractory ovarian cancer. Nature of the data set: Phase II single agent study in refractory ovarian cancer. To be noted: 150 mg daily, preliminary results. It is filed as in vivo, human. An excerpt:
Evidence of anti-tumor activity can also be seen in the patients with ovarian cancer in the on-going Phase II study.

Setting [8] is: advanced head and neck cancer, preliminary results.

In the case of `C#Cc1cccc(Nc2ncnc3cc(OCCOC)c(OCCOC)cc23)c1` [mesylate compounds, N-(3-ethynylphenyl)-6,7-bis(2-methoxyethoxy)-4-quinazolinamine], the “solubility in aqueous compositions” value in data set [1] is on record as “more soluble”.
Regarding `C#Cc1cccc(Nc2ncnc3cc(OCCOC)c(OCCOC)cc23)c1.Cl` [polymorph A, N-(3-ethynylphenyl)-6,7-bis(2-methoxyethoxy)-4-quinazolinamine hydrochloride], the thermodynamic stability entry in data set [2] is listed as “thermodynamically less stable”.
On to `C#Cc1cccc(Nc2ncnc3cc(OCCOC)c(OCCOC)cc23)c1.Cl` [hydrochloride compound, [6,7-bis(2-methoxyethoxy)-quinazolin-4-yl]-(3-ethynylphenyl)amine hydrochloride, reference compound], for which, in data set [2], the thermodynamic stability result is reported as “partially reduced stability”.
With `C#Cc1cccc(Nc2ncnc3cc(OCCOC)c(OCCOC)cc23)c1.Cl` [polymorph B, N-(3-ethynylphenyl)-6,7-bis(2-methoxyethoxy)-4-quinazolinamine hydrochloride], in data set [3], the “patients with objective partial responses” value was found to be 5 patients and the “patients with stabilization of disease status” value (“patients with stabilization” for short) came to 4 patients. For the same molecule, in data set [4] (setting [8]), the “patients with objective partial responses” value is recorded as 3 patients and the “patients with stabilization” value is reported as 9 patients. In data set [4] (first group of patients in the head and neck cancer study), the “patients reporting acneiform rash” value is “approximately 70%”. For the same molecule, the most significant toxicity result in data set [5] (150 mg daily) is reported as “monomorphic acneiform rash”. Besides, the “severity of adverse events” value in data set [5] (Phase I, volunteers and cancer patients, dose of 150 mg/day) is recorded as “no adverse events that were greater than moderate in severity”. Besides, the dose limiting toxicity entry in data set [5] (daily dosing regimen study, 200 mg/day) was “diarrhea”. Further, in data set [5] (total of 290 patients in Phase I and ongoing Phase II studies), the safety profile result is listed as “well tolerated safety profile”. The thermodynamic stability result in data set [2] is on record as “thermodynamically most stable”. Also, in data set [6], the “patients alive over a year after inception of treatment” value is 8 patients and the “patients remained alive from 9-22 months” value came to 12 patients. In addition, in data set [7], the “patients with objective partial responses” value was 2 patients and the “patients with stabilization” value was determined as 4 patients.
